From patent US7820665B2, “Imidazopyridazine inhibitors of PI3 kinase for cancer treatment” (Amgen Inc., priority 2007, dated 2010) come the findings set out here.

One assay deals with T1, PI3Kα (Homo sapiens, UniProt P42336).
T1 construct: Full length p110 subunits of PI3K α, β and δ, N-terminally labeled with polyHis tag; polyHis (N); made in house; host or cells: Sf9 insect cells (baculovirus)
Put plainly: In vitro PI3 kinase enzyme assay (PI3K ATPLoss). In kind it is biochemical. The note with it: recombinant p110α/p85, residual ATP by bioluminescence. As to the method: Full length p110 subunits of PI3K α, β and δ, N-terminally labeled with polyHis tag, can be co-expressed with p85 with Baculo virus expression vectors in sf9 insect cells. P110/p85 heterodimers can be purified by sequential Ni-NTA, Q-HP, Superdex-100 chromatography. Purified α, β and δ isozymes can be stored at −20° C. in 20 mM Tris, pH 8, 0.2M NaCl, 50% glycerol, 5 mM DTT, 2 mM Na cholate. Truncated PI3Kγ, residues 114-1102, N-terminally labeled with polyHis tag, can be expressed with Baculo virus in Hi5 insect cells. The γ isozyme can be purified by sequential Ni-NTA, Superdex-200, Q-HP chromatography. The γ isozyme can be stored frozen at −80° C. in NaH2PO4, pH 8, 0.2M NaCl, 1% ethylene glycol, 2 mM β-mercaptoethanol.
PI3K enzyme assays (alpha, beta, delta and gamma) can be performed in 25 μL with the above final concentrations of components in white polyproplyene plates. Phosphatidyl inositol phosphoacceptor, PtdIns(4,5)P2 (e.g. P4508) can be obtained from Echelon Biosciences, Salt Lake City, Utah. The ATPase activity of the alpha and gamma isozymes may not be greatly stimulated by PtdIns(4,5)P2 under these conditions, it can be omitted from the assay of these isozymes. Test compounds can be dissolved in DMSO and diluted with three-fold serial dilutions. The compound in DMSO (1 μL) may be added per test well, and the inhibition relative to reactions containing no compound, with and without enzyme can be determined. After assay incubation at RT, the reaction can be stopped and residual ATP can be determined by addition of an equal volume of a commercial ATP bioluminescence kit (Perkin Elmer EasyLite, Perkin Elmer, Waltham, Mass.) according to the manufacturer's instructions, and detected using an Analyst GT luminometer.

The test system of assay [1] is phosphorylation of Akt at Serine 473 in U87 MG cells. Put plainly: pAkt AlphaScreen (U87 Cell). Type of assay: cell-based. To be noted: 2 h compound, pAkt Ser473 AlphaScreen. As for the experimental part: The pAkt AlphaScreen® assay (PerkinElmer, Waltham, Mass.) determines whether there is phosphorylation of Akt at Serine 473 by recruitment of a phosphospecific antibody. This assay was performed using U87 MG cells. The U87 growth media consists of MEM (Gibco, Carlsbad, Calif.) supplemented with 10% FBS (Gibco), 1× Non-Essential Amino Acids (Gibco) and 1× Penicillin/Streptomycin/Glutamine (Gibco). The cells were maintained weekly using 0.05% Trypsin (Gibco) and replated in 150 mm TC-Treated Culture Dishes (Corning, Corning, N.Y.).
The first day of the assay, the adherent cells were trypsinized, media was added to the loose cells and cells were mixed to a homogenous mixture. 0.5 ml of the homogenous mixture was counted on the Beckman Coulter® Vi-CELL™ XR (Fullerton, Calif.). 50 frames of cells were counted and the number of viable cells was determined. The cells were then diluted to 0.25 million cells per ml, and centrifuged at 200 rcf for 5 minutes. The media was removed and the cells were reconstituted in fresh media for plating. The cells were plated at 20 μl per well on the PerkinElmer® Flexprop PLUS in Low Volume 384 Well White Tissue Culture Plates (Corning) with a final cell density of 5K cells per well. The plates were incubated overnight at 37° Celsius, 5% CO2.
On the second day, the compound plates were prepared, the cells were treated with compound and the pAkt reaction mix was added to the cell lysate. 384 well compound plates were prepared containing 1 μl of compound per well starting at 5 mM and diluted 1:2 across the row, resulting in a 22 well serial dilution. 39 μl of growth media was added to the compound plate in rows 1-22 using the PerkinElmer® FlexDrop PLUS resulting in a DMSO concentration of 2.5%. The cell plates and diluted compound plates were put onto the VELOCITY11™ VPREP™ 384 ST where the compound plate was mixed and 5 μl of serially diluted compound or controls was added to the cell plate. The final concentration of the compounds was 25 μM serially diluted to 11.9 pM in 0.5% DMSO. The cell plates were then incubated with compound for two hours at 37° Celsius, 5% CO2. After two hours, the media in the cell plates was aspirated using the BioTek® ELx405HT plate washer (Winooski, Vt.) removing the majority of media and compound without disturbing the adherent U87 cells. The following assay reagents are components of the SureFire® Akt (Ser 473) Phosphorylation 50K Point Kit (TGR BioSciences, Adelaide, Australia) and an IgG Detection Kit (PerkinElmer, Waltham, Mass.). 5 μl of 1× Lysis Buffer was added to each well using the PerkinElmer® FlexDrop PLUS. The plates were then incubated at room temperature on a shaker for ten minutes. The AlphaScreen® reaction was prepared under low light conditions (subdued or green light) including p-Akt (Ser 473) Reaction Buffer, Dilution Buffer, Activation Buffer, Acceptor Beads and Donor Beads at a ratio of 40:20:10:1:1 respectively. The AlphaScreen® reaction was added to the cell lysate at 6 μl per well using the PerkinElmer® FlexDrop PLUS. The plates were placed in a humid environment to reduce edge effects and incubated overnight at room temperature with restricted air flow in the dark.
On the final day of the experiment, the plates were read on the PerkinElmer® EnVision™ 2103 Multilable Reader using the standard AlphaScreen® readout. The POC is calculated and the data is analyzed to report the IC50 IP for pAkt at Serine 473.

Assay [2] concerns Akt phosphorylation at Ser473 in HCT116 cells. Put plainly: Cell-based phospho-AKT Ser473 assay (HCT116 Cell), MSD sandwich immunoassay.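 Also: IGF-1 added at 100 ng/mL for 15 min after compound treatment, electrochemiluminescent readout of phospho-Akt, DMSO-only wells define maximum signal, IC50 reflects inhibition of phosphorylation.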
Excerpt: This assay determines the ability of a compound to inhibit the phosphorylation of Serine 472 in Akt using a MSD based sandwich immunoassay (Meso Scale Detection, Meso Scale Discovery (MSD), Gaithersburg, Md.). HCT116 human colon carcinoma cell lines can be grown in McCoy's 5A growth medium (GIBCO, Carlsbad, Calif.) containing 10% FBS (GIBCO, Carlsbad, Calif.) and X1 Penicillin-streptomycin-glutamine (GIBCO, Carlsbad, Calif.). Prior to the assay, cells can be detached from the culture flask with trypsin, and re-suspended in complete media to give a final concentration of 1.6×10^5 cells per mL. Aliquots (100 μl) of the HCT116 cell suspension can be seeded into each well of a 96 well tissue culture plate to give a final density of 16,000 cells per well. Cells can then be incubated overnight at 37° C.
The following day the cells can be treated with serially diluted test compounds and incubated for 2 hours at 37° C. The culture media on the HCT 116 cells can be replaced with 189 μL McCoys media, supplemented with 0.1% BSA (ICN Biomedicals, Inc., Costa Mesa, Calif.). […] Aliquots (1 μL) of serially-diluted compounds can be transferred to 96 well tissue culture plates containing the HCT 116 cells. […] As a maximum response control, wells can contain 0.5% DMSO in place of compound. The plates can be mixed at 700 rpm for 2 min to ensure even distribution of the test compound and incubated for 2 hours at 37° C. Cells can then be stimulated with insulin-like growth factor 1 (Sigma, St Louis, Mo.) at final concentration of 100 ng/mL for 15 minutes at 37° C. The media can then be removed and the cells treated with 80 μL cell-lysis buffer (MSD) containing a cocktail of protease and phosphatase inhibitors for one hour at 4° C.
25 μL Cell lysate can then be transferred to pre-blocked MSD assay plates pre-coated with a capture antibody specific for Akt, and the plates can be incubated for 2 hours at room temperature. The cell lysates can then be removed and plates can then be washed four times with 200 μl per well of Tris wash buffer (500 mM Tris, PH 7.5, 1.5 M NaCl, 0.2% Tween-20). Subsequently cells can be incubated for 1 hour at room temperature with a 25 μL solution containing the detection antibody, anti-phospho Akt (Ser 473) labeled with an electrochemiluminescent compound (Meso Scale Discovery SULPHO-TAG™ label, MSD, Gaithersburg, Md.). The detection antibody can be removed and plates can then be washed four times with 200 μL per well of Tris wash buffer. An aliquot of 150 μL of diluted MSD read buffer can then be applied to each well, and the electrochemiluminescent signal can be measured using a MSD SECTOR™ plate reader (Meso Scale Discovery, Gaithersburg, Md.). This instrument measures the intensity of emitted light to determine a quantitative measure of phosphorylated Akt in each well. The dose-response data obtained with each compound can be analyzed and the IC50 inhibition of Akt phosphorylation at Ser473 can be calculated.
Setting [3] is: Homo sapiens, HCT-116, 2 h, read-out: HCT116 Cell IC50, HCT116 cells, 2 h compound, IGF-1 stimulation, pAkt Ser473.
Setting [4] is: read-out: HCT116 Cell IC50, HCT116 cells, 2 h compound, IGF-1 stimulation, pAkt Ser473.

Where two headings read alike, the source gives them in different places.

T1 sequence (P42336 whole entry, species assumed): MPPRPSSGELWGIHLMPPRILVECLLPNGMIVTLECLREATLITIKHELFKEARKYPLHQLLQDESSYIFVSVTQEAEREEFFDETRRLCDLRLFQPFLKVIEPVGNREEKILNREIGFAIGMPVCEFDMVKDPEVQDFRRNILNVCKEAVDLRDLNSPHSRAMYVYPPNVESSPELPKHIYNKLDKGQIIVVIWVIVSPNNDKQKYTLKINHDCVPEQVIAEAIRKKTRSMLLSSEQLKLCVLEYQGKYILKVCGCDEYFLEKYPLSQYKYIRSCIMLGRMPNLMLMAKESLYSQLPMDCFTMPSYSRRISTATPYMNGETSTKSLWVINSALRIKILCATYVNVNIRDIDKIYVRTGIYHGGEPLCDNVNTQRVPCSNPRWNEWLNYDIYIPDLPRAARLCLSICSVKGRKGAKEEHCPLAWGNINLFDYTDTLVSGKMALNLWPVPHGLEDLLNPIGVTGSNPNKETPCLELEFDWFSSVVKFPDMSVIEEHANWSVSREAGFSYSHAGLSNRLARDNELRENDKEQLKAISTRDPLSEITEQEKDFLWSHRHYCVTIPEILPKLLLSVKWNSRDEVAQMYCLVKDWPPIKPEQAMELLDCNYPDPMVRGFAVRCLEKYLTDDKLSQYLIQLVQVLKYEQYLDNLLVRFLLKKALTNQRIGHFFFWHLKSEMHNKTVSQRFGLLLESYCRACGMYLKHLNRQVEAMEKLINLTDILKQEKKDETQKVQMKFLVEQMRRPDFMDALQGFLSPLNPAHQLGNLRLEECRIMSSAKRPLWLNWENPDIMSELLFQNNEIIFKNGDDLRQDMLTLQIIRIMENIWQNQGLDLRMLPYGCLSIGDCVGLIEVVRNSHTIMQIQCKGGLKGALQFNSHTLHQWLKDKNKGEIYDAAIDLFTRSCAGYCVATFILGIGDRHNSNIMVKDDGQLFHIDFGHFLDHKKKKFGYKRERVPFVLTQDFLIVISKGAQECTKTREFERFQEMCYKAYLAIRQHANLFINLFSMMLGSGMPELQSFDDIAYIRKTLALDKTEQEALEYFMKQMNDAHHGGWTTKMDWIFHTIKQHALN
T1 sequence (P27986 whole entry partner, species assumed): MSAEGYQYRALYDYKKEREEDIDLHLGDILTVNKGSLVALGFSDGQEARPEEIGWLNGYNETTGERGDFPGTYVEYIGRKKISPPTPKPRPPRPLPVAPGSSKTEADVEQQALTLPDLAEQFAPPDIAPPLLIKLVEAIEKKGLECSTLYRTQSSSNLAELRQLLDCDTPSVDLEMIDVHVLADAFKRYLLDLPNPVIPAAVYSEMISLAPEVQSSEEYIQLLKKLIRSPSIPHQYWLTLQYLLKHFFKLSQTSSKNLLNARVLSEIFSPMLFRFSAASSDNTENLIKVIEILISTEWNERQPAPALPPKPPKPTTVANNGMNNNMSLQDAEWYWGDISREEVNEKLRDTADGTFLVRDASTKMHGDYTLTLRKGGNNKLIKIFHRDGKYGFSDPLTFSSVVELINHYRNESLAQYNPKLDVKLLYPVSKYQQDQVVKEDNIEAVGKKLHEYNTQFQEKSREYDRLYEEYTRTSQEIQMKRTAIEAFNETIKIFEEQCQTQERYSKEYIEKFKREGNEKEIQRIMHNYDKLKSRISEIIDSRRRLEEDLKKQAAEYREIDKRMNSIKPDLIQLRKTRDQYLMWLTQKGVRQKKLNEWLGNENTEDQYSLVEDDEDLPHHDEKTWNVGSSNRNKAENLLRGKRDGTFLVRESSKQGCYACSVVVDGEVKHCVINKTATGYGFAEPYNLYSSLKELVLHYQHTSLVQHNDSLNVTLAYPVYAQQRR

In the case of `CNC(C)c1ccc(S(=O)(=O)Nc2cc(-c3ccc4nc(NC(C)=O)cn4n3)cnc2Cl)cc1` (single isomer, unassigned) [Example 38, N-(6-(6-chloro-5-(4-(1-(methylamino)ethyl)phenylsulfonamido)pyridin-3-yl)imidazo[1,2-b]pyridazin-2-yl)acetamide], the 50% inhibitory concentration (IC50) (usually the midpoint of a concentration-inhibition curve) was 6 nM on PI3Kα; 31 nM in assay [1] (Homo sapiens, U-87 MG, 2 h); 124 nM in assay [2] (setting [3]).

As to `CNC(C)c1ccc(S(=O)(=O)Nc2cc(-c3ccc4nc(NC(C)=O)cn4n3)cnc2Cl)cc1` (single isomer, unassigned) [Example 39, N-(6-(6-chloro-5-(4-(1-(methylamino)ethyl)phenylsulfonamido)pyridin-3-yl)imidazo[1,2-b]pyridazin-2-yl)acetamide], the values for the IC50 (at PI3Kα; in assay [1]; in assay [2] (setting [4])) were 8 nM, 28 nM and 105 nM, respectively.

In the case of `CC(=O)Nc1cn2nc(-c3cnc(Cl)c(NS(=O)(=O)c4ccc(F)cc4)c3)ccc2n1` [Example 12, N-(6-(6-chloro-5-(4-fluorophenylsulfonamido)pyridin-3-yl)imidazo[1,2-b]pyridazin-2-yl)acetamide], the half-inhibitory concentration (IC50) at PI3Kα is 7 nM; in assay [1] (Homo sapiens, U-87 MG, 2 h), 14 nM; in assay [2] (setting [3]) it was 31 nM.

As for `COc1ccc(S(=O)(=O)N(C)c2nccc(-c3ccc4nc(NC(C)=O)cn4c3)n2)cc1` [Example 13, N-(6-(2-(4-Methoxy-N-methylphenylsulfonamido)pyrimidin-4-yl)H-imidazo[1,2-a]pyridin-2-yl)acetamide], the IC50 stood at 146 nM on PI3Kα and 847 nM in assay [2] (setting [3]).

As for `CC(=O)Nc1cn2cc(-c3cncc(NS(=O)(=O)c4ccc(F)cc4)c3)ccc2n1` [Example 15, N-(6-(5-(4-Fluorophenylsulfonamido)pyridin-3-yl)H-imidazo[1,2-a]pyridin-2-yl)acetamide], the IC50 at PI3Kα was 10 nM; in assay [2] (setting [3]), 975 nM.

On to `CC(=O)Nc1cn2cc(-c3cncc(NS(=O)(=O)C4CC4)c3)ccc2n1` [Example 16, N-(6-(5-(Cyclopropanesulfonamido)pyridin-3-yl)H-imidazo[1,2-a]pyridin-2-yl)acetamide], for which the IC50 was 19 nM on PI3Kα and 14400 nM in assay [2] (setting [3]).

As to `CC(=O)Nc1cn2cc(-c3cncc(NS(C)(=O)=O)c3)ccc2n1` [Example 17, N-(6-(5-(Methylsulfonamido)pyridin-3-yl)H-imidazo[1,2-a]pyridin-2-yl)acetamide], the values for the half-maximal inhibitory concentration (IC50) (at PI3Kα; in assay [2] (setting [3])) were 37 nM and 29300 nM, respectively.

For `CC(=O)Nc1cn2nc(-c3cnc(Cl)c(NS(C)(=O)=O)c3)ccc2n1` [Example 19, N-(6-(6-Chloro-5-(methylsulfonamido)pyridin-3-yl)imidazo[1,2-b]pyridazin-2-yl)acetamide], the IC50 came to 5.7 nM at PI3Kα; 133 nM in assay [1] (Homo sapiens, U-87 MG, 2 h); 218 nM in assay [2] (setting [3]).

On to `CC(=O)Nc1cn2cc(-c3cnc(Cl)c(NS(=O)(=O)c4ccc(F)cc4)c3)ccc2n1` [Example 28, N-(6-(6-Chloro-5-(4-fluorophenylsulfonamido)pyridin-3-yl)imidazo[1,2-a]pyridin-2-yl)acetamide], for which the half-inhibitory concentration (IC50) amounted to 9 nM on PI3Kα; 118 nM in assay [1] (Homo sapiens, U-87 MG, 2 h); 46 nM in assay [2] (setting [4]).

Consider `CC(=O)Nc1nc2cc(-c3cnc(Cl)c(NS(=O)(=O)c4ccc(F)cc4)c3)ccc2[nH]1` [Example 30, N-(5-(6-Chloro-5-(4-fluorophenylsulfonamido)pyridin-3-yl)-1H-benzo[d]imidazol-2-yl)acetamide], for which the 50% inhibitory concentration (IC50) at PI3Kα was determined as 12 nM; in assay [2] (setting [3]) it was 1100 nM.

`Nc1nc2ccc(-c3cnc(Cl)c(NS(=O)(=O)c4ccc(F)cc4)c3)cc2n1-c1ccccn1` [Example 31, N-(5-(2-Amino-1-(pyridin-2-yl)-1H-benzo[d]imidazol-6-yl)-2-chloropyridin-3-yl)-4-fluorobenzenesulfonamide]: the IC50 worked out at 8 nM at PI3Kα and 868 nM in assay [2] (setting [3]).

`CC(=O)Nc1nc2ccc(-c3cnc(Cl)c(NS(=O)(=O)c4ccc(F)cc4)c3)cc2n1-c1ccccn1` [Example 32, N-(6-(6-Chloro-5-(4-fluorophenylsulfonamido)pyridin-3-yl)-1-(pyridin-2-yl)-1H-benzo[d]imidazol-2-yl)acetamide]: the IC50 on PI3Kα turned out to be 49 nM; in assay [2] (setting [3]) it was 2720 nM.

As for `CC(=O)Nc1cn2nc(-c3cnc(Cl)c(NS(=O)(=O)c4cccc(OC(F)F)c4)c3)ccc2n1` [Example 33, N-(6-(6-Chloro-5-(3-(difluoromethoxy)phenylsulfonamido)pyridin-3-yl)imidazo[1,2-b]pyridazin-2-yl)acetamide], the half-inhibitory concentration (IC50) at PI3Kα stood at 7 nM; in assay [1] (Homo sapiens, U-87 MG, 2 h) it was 15 nM; in assay [2] (setting [3]) it was 24 nM.

Take `CC(=O)Nc1cn2nc(-c3cnc(Cl)c(NS(=O)(=O)c4c(C)cccc4Cl)c3)ccc2n1` [Example 34, N-(6-(6-Chloro-5-(2-chloro-6-methylphenylsulfonamido)pyridin-3-yl)imidazo[1,2-b]pyridazin-2-yl)acetamide]: the IC50 at PI3Kα is 7 nM; in assay [1] (Homo sapiens, U-87 MG, 2 h), 7 nM; in assay [2] (setting [3]), 3 nM.

For the compound `CC(=O)Nc1cn2nc(-c3cnc(Cl)c(NS(=O)(=O)c4ccc(C(C)(C)O)cc4)c3)ccc2n1` [Example 35, N-(6-(6-Chloro-5-(4-(2-hydroxypropan-2-yl)phenylsulfonamido)pyridin-3-yl)imidazo[1,2-b]pyridazin-2-yl)acetamide], the IC50 is 6 nM at PI3Kα; 34 nM in assay [1] (Homo sapiens, U-87 MG, 2 h); 49 nM in assay [2] (setting [3]).

As to `Nc1cn2nc(-c3cnc(Cl)c(NS(=O)(=O)c4ccc(F)cc4)c3)ccc2n1` [Example 36, N-(5-(2-Aminoimidazo[1,2-b]pyridazin-6-yl)-2-chloropyridin-3-yl)-4-fluorobenzenesulfonamide], the IC50 on PI3Kα was 83 nM; in assay [1] (Homo sapiens, U-87 MG, 2 h), 415 nM; in assay [2] (setting [4]) it was 2430 nM.
